In brackets after ≈: the same amount, converted by molar mass.
What was measured:
Escherichia coli [1] = assay: Antibacterial activity against wild-type Escherichia coli ATCC 25922 assessed as inhibition of bacterial growth incubated for 18 hrs; type: functional; settings: read-out: MIC100
Klebsiella pneumoniae [2] = assay: Antibacterial activity against wild-type Klebsiella pneumoniae ATCC 13883 assessed as inhibition of bacterial growth incubated for 18 hrs; type: functional; settings: read-out: MIC100
[3] = Hemolytic activity in human red blood cells at 400 ug/ml incubated for 45 mins by spectrophotometric analysis relative to control; type: toxicity, cell-based, Erythrocyte; settings: red blood cells (erythrocytes), at 400 µg/mL, read-out: Activity
[4] = Cytotoxicity against human HepG2 cells incubated for 40 hrs by celltiter-glo luminescent cell viability assay; type: toxicity, cell-based
Escherichia coli [5] = assay: Antibacterial activity against wild-type Escherichia coli ATCC 25922 assessed as inhibition of bacterial growth by measuring fold increase in MIC incubated for 18 hrs in presence of 50% heat inactivated human serum relative to control; type: functional
Escherichia coli [6] = assay: Antibacterial activity against wild-type Escherichia coli ATCC 25922 assessed as inhibition of bacterial growth incubated for 18 hrs in presence of 50% heat inactivated human serum; type: functional; settings: read-out: MIC100
Escherichia coli [7] = assay: Antibacterial activity against Escherichia coli ATCC 25922 harboring hldE knock-out assessed as inhibition of bacterial growth incubated for 18 hrs; type: functional; settings: read-out: MIC100
Escherichia coli [8] = assay: Antibacterial activity against Escherichia coli ATCC 25922 harboring tolC knock-out assessed as inhibition of bacterial growth incubated for 18 hrs; type: functional; settings: read-out: MIC100
Klebsiella pneumoniae [9] = assay: Antibacterial activity against wild-type Klebsiella pneumoniae ATCC 13883 assessed as inhibition of bacterial growth incubated for 18 hrs in presence of 50% heat inactivated human serum; type: functional; settings: read-out: MIC100
Acinetobacter baumannii = assay: Antibacterial activity against wild-type Acinetobacter baumannii ATCC 19606 assessed as inhibition of bacterial growth incubated for 20 hrs; type: functional; settings: read-out: MIC100
Pseudomonas aeruginosa [10] = assay: Antibacterial activity against wild-type Pseudomonas aeruginosa PAO1 assessed as inhibition of bacterial growth incubated for 24 hrs; type: functional; settings: read-out: MIC100
Staphylococcus aureus [11] = assay: Antibacterial activity against […] assessed as inhibition of bacterial growth incubated for 18 hrs; type: functional; settings: ATCC 29213, read-out: MIC100
[12] = Hydrophobicity of compound assessed as %MeCN at peak elution by RP-HPLC analysis; type: physicochemical
[13] = Binding affinity to gram negative bacterial lipid II assessed as dissociation constant by ITC analysis; parameters: species or system Bacteria
Citrobacter freundii = assay: Antibacterial activity against Citrobacter freundii ATCC 8090 assessed as inhibition of bacterial growth incubated for 18 hrs; type: functional; settings: read-out: MIC100
Klebsiella pneumoniae [14] = assay: Antibacterial activity against Klebsiella pneumoniae ATCC BAA-2470 expressing NDM-1 assessed as inhibition of bacterial growth incubated for 18 hrs; type: functional; settings: read-out: MIC100
Klebsiella pneumoniae [15] = assay: Antibacterial activity against Klebsiella pneumoniae ATCC 43816 assessed as inhibition of bacterial growth incubated for 18 hrs; type: functional; settings: read-out: MIC100
Klebsiella aerogenes = assay: Antibacterial activity against Enterobacter aerogenes ATCC 13048 assessed as inhibition of bacterial growth incubated for 18 hrs; type: functional; settings: read-out: MIC100
Escherichia coli [16] = assay: Antibacterial activity against Escherichia coli ATCC BAA-2469 expressing NDM-1 assessed as inhibition of bacterial growth incubated for 18 hrs; type: functional; settings: read-out: MIC100
Escherichia coli [17] = assay: Antibacterial activity against colistin resistant Escherichia coli NCTC 13846 harboring mcr-1 gene assessed as inhibition of bacterial growth incubated for 18 hrs; type: functional; settings: read-out: MIC100
Escherichia coli [18] = assay: Antibacterial activity against Escherichia coli Swiss 7 harboring mcr-1 gene assessed as inhibition of bacterial growth incubated for 18 hrs; type: functional; settings: read-out: MIC100
Escherichia coli [19] = assay: Antibacterial activity against Escherichia coli Swiss 9 harboring mcr-1 gene assessed as inhibition of bacterial growth incubated for 18 hrs; type: functional; settings: read-out: MIC100
Morganella morganii = assay: Antibacterial activity against Morganella morganii ATCC 25830 assessed as inhibition of bacterial growth incubated for 18 hrs; type: functional; settings: read-out: MIC100
Proteus mirabilis = assay: Antibacterial activity against Proteus mirabilis ATCC 25933 assessed as inhibition of bacterial growth incubated for 18 hrs; type: functional; settings: read-out: MIC100
Providencia stuartii = assay: Antibacterial activity against Providencia stuartii ATCC 25826 assessed as inhibition of bacterial growth incubated for 18 hrs; type: functional; settings: read-out: MIC100
Salmonella typhimurium = assay: Antibacterial activity against Salmonella typhimurium ATCC 13311 assessed as inhibition of bacterial growth incubated for 18 hrs; type: functional, Salmonella enterica subsp. enterica serovar Typhimurium; settings: Salmonella enterica, read-out: MIC100
Serratia marcescens = assay: Antibacterial activity against intrinsically colistin resistant Serratia marcescens ATCC 13880 assessed as inhibition of bacterial growth incubated for 18 hrs; type: functional; settings: read-out: MIC100
Pseudomonas aeruginosa [20] = assay: Antibacterial activity against efflux-deficient Pseudomonas aeruginosa PAO750 assessed as inhibition of bacterial growth incubated for 18 hrs; type: functional; settings: read-out: MIC100
Staphylococcus aureus [21] = assay: Antibacterial activity against wild type Staphylococcus aureus USA300 assessed as inhibition of bacterial growth incubated for 18 hrs; type: functional; settings: read-out: MIC100
Lipopolysaccharide (LPS) = assay: Binding affinity to Escherichia coli O55:B5 LPS assessed as dissociation constant by ITC analysis; type: subcellular

Row | Compound | MIC (Escherichia coli [1]) | MIC (Klebsiella pneumoniae [2]) | hemolysis at 0.75 h, 400 ug/ml [3] | IC50 at 40 h [4] | fold change (FC) (Escherichia coli [5]) | MIC (Escherichia coli [6]) | MIC (Escherichia coli [7]) | MIC (Escherichia coli [8]) | MIC (Klebsiella pneumoniae [9]) | MIC (Acinetobacter baumannii) | MIC (Pseudomonas aeruginosa [10]) | MIC (Staphylococcus aureus [11]) | MeCN percentage at peak elution [12] | Kd [13] | also measured
1 | CC[C@H](C)[C@@H](NC(=O)[C@@H](NC(=O)[C@H](CCC(=O)O)NC(=O)[C@H](Cc1ccccc1)NC(=O)[C@@H](CCN)NC(=O)[C@H](CCN)NC(=O)[C@H](CO)NC(=O)[C@@H](Cc1c[nH]c2ccccc12)NC(=O)[C@@H](CO)NC(=O)CNC(=O)[C@@H](CCN)NC(=O)[C@H](NC(=O)[C@H](C)N)C(C)C)C(C)(C)C)C(=O)N[C@@H](C)C(N)=O | 16 µg/mL (≈ 10.8 µM) | 8 µg/mL (≈ 5.41 µM) | 6% | > 170 µg/mL | 8 | 2 µg/mL | > 64 µg/mL | 0.5 µg/mL (≈ 0.338 µM) | 0.125 µg/mL | 64 µg/mL (≈ 43.3 µM) | > 64 µg/mL | > 64 µg/mL | 41.8% | 2.15 µM | –
2 | CC[C@H](C)[C@@H](NC(=O)[C@@H](NC(=O)[C@H](CCC(=O)O)NC(=O)[C@H](Cc1ccccc1)NC(=O)[C@@H](CCN)NC(=O)[C@H](CCN)NC(=O)[C@H](CO)NC(=O)[C@@H](Cc1c[nH]c2ccccc12)NC(=O)[C@@H](CO)NC(=O)CNC(=O)[C@@H](CCN)NC(=O)[C@H](NC(=O)CCN)C(C)C)C(C)C)C(=O)N[C@@H](C)C(=O)O | ≥ 2 µg/mL | 2 µg/mL (≈ 1.36 µM) | 0% | > 170 µg/mL | – | – | 0.5 µg/mL (≈ 0.341 µM) | 0.5 µg/mL (≈ 0.341 µM) | – | 32 µg/mL (≈ 21.8 µM) | 8 µg/mL (≈ 5.46 µM) | 64 µg/mL (≈ 43.7 µM) | 39.8% | 0.39 µM | –
3 | O=C(O)c1cn(C2CC2)c2cc(N3CCNCC3)c(F)cc2c1=O [CIPROFLOXACIN] | – | 0.032 µg/mL (≈ 0.0966 µM) | – | > 170 µg/mL | – | – | – | – | – | – | – | – | – | – | MIC (Citrobacter freundii): 0.004 µg/mL (≈ 0.0121 µM); MIC (Klebsiella pneumoniae [14]): > 1 µg/mL; MIC (Klebsiella pneumoniae [15]): 0.003 µg/mL (≈ 0.00905 µM); MIC (Klebsiella aerogenes): 0.008 µg/mL (≈ 0.0241 µM); MIC (Escherichia coli [16]): > 1 µg/mL; MIC (Escherichia coli [17]): > 1 µg/mL; MIC (Escherichia coli [18]): > 1 µg/mL; MIC (Escherichia coli [19]): > 1 µg/mL; MIC (Morganella morganii): 0.002 µg/mL (≈ 0.00604 µM); MIC (Proteus mirabilis): 0.016 µg/mL (≈ 0.0483 µM); MIC (Providencia stuartii): 0.016 µg/mL (≈ 0.0483 µM); MIC (Salmonella typhimurium): 0.004 µg/mL (≈ 0.0121 µM); MIC (Serratia marcescens): 0.032 µg/mL (≈ 0.0966 µM); MIC (Pseudomonas aeruginosa [20]): 0.004 µg/mL (≈ 0.0121 µM); MIC (Staphylococcus aureus [21]): 1 µg/mL (≈ 3.02 µM)
4 | CC[C@H](N)C(=O)N[C@@H](C(=O)N[C@H](CCN)C(=O)NCC(=O)N[C@H](CO)C(=O)N[C@H](Cc1c[nH]c2ccccc12)C(=O)N[C@@H](CO)C(=O)N[C@@H](CCN)C(=O)N[C@H](CCN)C(=O)N[C@@H](Cc1ccccc1)C(=O)N[C@@H](CCC(=O)O)C(=O)N[C@H](C(=O)N[C@@H](C(=O)N[C@@H](C)C(=O)O)[C@@H](C)CC)C(C)C)C(C)C | 2 µg/mL (≈ 1.35 µM) | 2 µg/mL (≈ 1.35 µM) | 8.8% | 95 µg/mL (≈ 64.2 µM) | 2 | 1 µg/mL | 1 µg/mL (≈ 0.676 µM) | 1 µg/mL (≈ 0.676 µM) | 0.5 µg/mL | 64 µg/mL (≈ 43.3 µM) | 64 µg/mL (≈ 43.3 µM) | > 64 µg/mL | 40.7% | – | –
5 | CC[C@H](C)[C@@H](NC(=O)[C@@H](NC(=O)[C@H](CCC(=O)O)NC(=O)[C@H](Cc1ccccc1)NC(=O)[C@@H](CCN)NC(=O)[C@H](C)NC(=O)[C@H](CO)NC(=O)[C@@H](Cc1c[nH]c2ccccc12)NC(=O)[C@@H](CO)NC(=O)CNC(=O)[C@@H](CCN)NC(=O)[C@H](NC(=O)[C@H](C)N)C(C)C)C(C)C)C(=O)N[C@@H](C)C(=O)O | 8 µg/mL (≈ 5.57 µM) | 4 µg/mL (≈ 2.78 µM) | 7.9% | 121 µg/mL (≈ 84.2 µM) | – | 8 µg/mL | 4 µg/mL (≈ 2.78 µM) | 8 µg/mL (≈ 5.57 µM) | 16 µg/mL | 32 µg/mL (≈ 22.3 µM) | > 64 µg/mL | > 64 µg/mL | 44.3% | 3.7 µM | –
6 | CC[C@H](C)[C@H](N)C(=O)N[C@@H](C(=O)N[C@H](CCN)C(=O)NCC(=O)N[C@H](CO)C(=O)N[C@H](Cc1c[nH]c2ccccc12)C(=O)N[C@@H](CO)C(=O)N[C@@H](CCN)C(=O)N[C@H](CCN)C(=O)N[C@@H](Cc1ccccc1)C(=O)N[C@@H](CCC(=O)O)C(=O)N[C@H](C(=O)N[C@@H](C(=O)N[C@@H](C)C(=O)O)[C@@H](C)CC)C(C)C)C(C)C | 1 µg/mL (≈ 0.663 µM) | 1 µg/mL (≈ 0.663 µM) | 56.9% | 20 µg/mL (≈ 13.3 µM) | – | – | – | – | – | – | – | – | – | 4.8 µM | Kd (Lipopolysaccharide (LPS)): 0.088 µM

Source: ChEMBL document CHEMBL5518181, “Studies of antibacterial activity (in vitro and in vivo) and mode of action for des-acyl tridecaptins (DATs)” (Eur J Med Chem, 2024)
